Assay results taken from publication PMC9097471, “Development of Selective Phosphatidylinositol 5-Phosphate 4-Kinase γ Inhibitors with a Non-ATP-competitive, Allosteric Binding Mode” (Journal of Medicinal Chemistry, 2022).

How the values were obtained:
[1] = molecular target: T1, PI5P4Kα (Homo sapiens, UniProt P48426); test: Thermal shift assay; conditions: read-out: ΔTm PI5P4Kα, thermal shift, compound 63 μM
T1 sequence (P48426 1-406): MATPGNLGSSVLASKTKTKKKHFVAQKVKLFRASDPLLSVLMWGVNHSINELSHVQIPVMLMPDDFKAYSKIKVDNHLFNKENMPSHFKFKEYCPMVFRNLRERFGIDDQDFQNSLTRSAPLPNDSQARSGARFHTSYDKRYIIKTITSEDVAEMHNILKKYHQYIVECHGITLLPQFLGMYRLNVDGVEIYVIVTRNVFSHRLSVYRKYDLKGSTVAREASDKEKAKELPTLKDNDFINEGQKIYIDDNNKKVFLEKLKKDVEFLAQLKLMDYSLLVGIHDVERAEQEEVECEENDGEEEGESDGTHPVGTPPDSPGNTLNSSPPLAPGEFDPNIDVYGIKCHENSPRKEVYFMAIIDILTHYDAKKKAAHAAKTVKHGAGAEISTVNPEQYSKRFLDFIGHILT

[2] = molecular target: TLK1 (Homo sapiens, UniProt Q9UKI8); test: Kinase panel, radiometric 33P filter binding; conditions: read-out: % activity remaining
Description: (§1) filter binding assay using 33P-g-ATPat the MRC PPU International Centre for Kinase Profiling, University of

[3] = molecular target: PRK2 (Homo sapiens, UniProt Q16513); test: Kinase panel, radiometric 33P filter binding; conditions: read-out: % activity remaining
Description: as §1

[4] = molecular target: BRSK1 (Homo sapiens, UniProt Q8TDC3); test: Kinase panel, radiometric 33P filter binding; conditions: read-out: % activity remaining
Description: as §1

[5] = molecular target: HER4 (Homo sapiens, UniProt Q15303); test: Kinase panel, radiometric 33P filter binding; conditions: read-out: % activity remaining
Description: as §1

[6] = molecular target: TAK1 (Homo sapiens, UniProt O43318); test: Kinase panel, radiometric 33P filter binding; conditions: read-out: % activity remaining
[7] = molecular target: SGK1 (Homo sapiens, UniProt O00141); test: Kinase panel, radiometric 33P filter binding; conditions: read-out: % activity remaining
Description: as §1

[8] = molecular target: MKK2 (Homo sapiens, UniProt P36507); test: Kinase panel, radiometric 33P filter binding; conditions: read-out: % activity remaining
[9] = molecular target: MST2 (Homo sapiens, UniProt Q13188); test: Kinase panel, radiometric 33P filter binding; conditions: read-out: % activity remaining
[10] = molecular target: OSR1 (Homo sapiens, UniProt O95747); test: Kinase panel, radiometric 33P filter binding; conditions: read-out: % activity remaining
[11] = molecular target: PINK (Tribolium castaneum, UniProt D6WMX4); test: biochemical; conditions: read-out: % activity remaining
[12] = molecular target: IR (Homo sapiens, UniProt P06213); test: Kinase panel, radiometric 33P filter binding; conditions: read-out: % activity remaining
Description: as §1

[13] = molecular target: CAMK1 (Homo sapiens, UniProt Q14012); test: Kinase panel, radiometric 33P filter binding; conditions: read-out: % activity remaining
Description: as §1

[14] = molecular target: CK1δ (Homo sapiens, UniProt P48730); test: Kinase panel, radiometric 33P filter binding; conditions: read-out: % activity remaining
Description: as §1

[15] = molecular target: ERK2 (Homo sapiens, UniProt P28482); test: Kinase panel, radiometric 33P filter binding; conditions: read-out: % activity remaining
Description: as §1

[16] = molecular target: CLK2 (Homo sapiens, UniProt P49760); test: Kinase panel, radiometric 33P filter binding; conditions: read-out: % activity remaining
Description: as §1

[17] = molecular target: PKCz (Homo sapiens, UniProt Q05513); test: Kinase panel, radiometric 33P filter binding; conditions: read-out: % activity remaining
Description: as §1

[18] = molecular target: TGFBR1 (Homo sapiens, UniProt P36897); test: Kinase panel, radiometric 33P filter binding; conditions: read-out: % activity remaining
[19] = molecular target: S6K1 (Homo sapiens, UniProt P23443); test: Kinase panel, radiometric 33P filter binding; conditions: read-out: % activity remaining
Description: as §1

[20] = molecular target: IGF-1R (Homo sapiens, UniProt P08069); test: Kinase panel, radiometric 33P filter binding; conditions: read-out: % activity remaining
Description: as §1

[21] = molecular target: ERK5 (Homo sapiens, UniProt Q13164); test: Kinase panel, radiometric 33P filter binding; conditions: read-out: % activity remaining
Description: as §1

[22] = molecular target: PIM2 (Homo sapiens, UniProt Q9P1W9); test: Kinase panel, radiometric 33P filter binding; conditions: read-out: % activity remaining
Description: as §1

[23] = molecular target: PIM1 (Homo sapiens, UniProt P11309); test: Kinase panel, radiometric 33P filter binding; conditions: read-out: % activity remaining
Description: as §1
Kinase % activity remaining s.d.

[24] = molecular target: BTK (Homo sapiens, UniProt Q06187); test: Kinase panel, radiometric 33P filter binding; conditions: read-out: % activity remaining
[25] = molecular target: TBK1 (Homo sapiens, UniProt Q9UHD2); test: Kinase panel, radiometric 33P filter binding; conditions: read-out: % activity remaining
Description: as §1
Kinase % activity remaining s.d.

[26] = molecular target: EIF2AK3 (Homo sapiens, UniProt Q9NZJ5); test: Kinase panel, radiometric 33P filter binding; conditions: read-out: % activity remaining
Description: as §1

[27] = molecular target: LKB1 (Homo sapiens, UniProt Q15831); test: Kinase panel, radiometric 33P filter binding; conditions: read-out: % activity remaining
Description: as §1

[28] = molecular target: IKKb (Homo sapiens, UniProt O14920); test: Kinase panel, radiometric 33P filter binding; conditions: read-out: % activity remaining
Description: as §1
Kinase % activity remaining s.d.

[29] = molecular target: PIM3 (Homo sapiens, UniProt Q86V86); test: Kinase panel, radiometric 33P filter binding; conditions: read-out: % activity remaining
Description: as §1

[30] = molecular target: JAK3 (Homo sapiens, UniProt P52333); test: Kinase panel, radiometric 33P filter binding; conditions: read-out: % activity remaining
[31] = molecular target: ZAP70 (Homo sapiens, UniProt P43403); test: Kinase panel, radiometric 33P filter binding; conditions: read-out: % activity remaining
[32] = molecular target: MAPKAP-K2 (Homo sapiens, UniProt P49137); test: Kinase panel, radiometric 33P filter binding; conditions: read-out: % activity remaining
[33] = molecular target: EPH-B3 (Homo sapiens, UniProt P54753); test: Kinase panel, radiometric 33P filter binding; conditions: read-out: % activity remaining
Description: as §1

PRK2, sequence (Q16513 whole entry): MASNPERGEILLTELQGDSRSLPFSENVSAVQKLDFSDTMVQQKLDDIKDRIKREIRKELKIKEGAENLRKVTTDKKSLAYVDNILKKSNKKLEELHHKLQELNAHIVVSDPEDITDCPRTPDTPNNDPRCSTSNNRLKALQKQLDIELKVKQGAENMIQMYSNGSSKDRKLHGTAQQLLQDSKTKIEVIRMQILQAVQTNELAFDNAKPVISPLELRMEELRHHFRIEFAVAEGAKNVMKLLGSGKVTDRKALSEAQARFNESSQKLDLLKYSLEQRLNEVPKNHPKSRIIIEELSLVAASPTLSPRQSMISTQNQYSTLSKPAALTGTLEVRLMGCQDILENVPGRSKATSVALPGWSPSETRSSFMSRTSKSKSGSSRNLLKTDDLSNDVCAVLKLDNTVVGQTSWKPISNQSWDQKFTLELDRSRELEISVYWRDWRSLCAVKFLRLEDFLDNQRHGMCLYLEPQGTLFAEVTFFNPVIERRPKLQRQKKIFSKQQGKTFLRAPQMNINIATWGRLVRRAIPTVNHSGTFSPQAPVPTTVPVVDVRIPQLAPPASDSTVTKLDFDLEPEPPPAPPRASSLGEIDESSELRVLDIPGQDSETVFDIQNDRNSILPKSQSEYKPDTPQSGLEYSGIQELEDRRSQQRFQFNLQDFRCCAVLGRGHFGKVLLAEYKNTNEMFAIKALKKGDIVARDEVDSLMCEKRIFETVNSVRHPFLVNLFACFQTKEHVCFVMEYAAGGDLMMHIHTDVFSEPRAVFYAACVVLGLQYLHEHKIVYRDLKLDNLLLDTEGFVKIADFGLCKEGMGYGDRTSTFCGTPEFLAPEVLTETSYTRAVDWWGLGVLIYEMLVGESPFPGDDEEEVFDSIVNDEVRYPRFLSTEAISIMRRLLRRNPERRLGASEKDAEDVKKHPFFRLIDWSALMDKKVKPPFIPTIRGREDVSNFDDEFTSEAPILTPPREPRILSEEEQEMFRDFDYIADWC
MST2, sequence (Q13188 whole entry): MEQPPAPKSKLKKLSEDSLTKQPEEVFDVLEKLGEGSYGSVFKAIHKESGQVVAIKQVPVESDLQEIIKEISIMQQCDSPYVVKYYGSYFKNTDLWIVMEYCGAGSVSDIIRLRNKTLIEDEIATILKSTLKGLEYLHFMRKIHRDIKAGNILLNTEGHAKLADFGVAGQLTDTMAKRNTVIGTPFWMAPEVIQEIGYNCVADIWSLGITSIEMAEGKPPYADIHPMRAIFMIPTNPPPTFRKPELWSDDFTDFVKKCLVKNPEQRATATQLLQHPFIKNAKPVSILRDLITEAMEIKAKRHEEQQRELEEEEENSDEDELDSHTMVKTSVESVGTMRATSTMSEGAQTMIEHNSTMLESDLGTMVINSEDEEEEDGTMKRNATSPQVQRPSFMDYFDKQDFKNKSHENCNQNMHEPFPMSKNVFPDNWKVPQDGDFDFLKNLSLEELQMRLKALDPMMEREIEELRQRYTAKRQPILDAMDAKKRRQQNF
ZAP70, sequence (P43403 whole entry): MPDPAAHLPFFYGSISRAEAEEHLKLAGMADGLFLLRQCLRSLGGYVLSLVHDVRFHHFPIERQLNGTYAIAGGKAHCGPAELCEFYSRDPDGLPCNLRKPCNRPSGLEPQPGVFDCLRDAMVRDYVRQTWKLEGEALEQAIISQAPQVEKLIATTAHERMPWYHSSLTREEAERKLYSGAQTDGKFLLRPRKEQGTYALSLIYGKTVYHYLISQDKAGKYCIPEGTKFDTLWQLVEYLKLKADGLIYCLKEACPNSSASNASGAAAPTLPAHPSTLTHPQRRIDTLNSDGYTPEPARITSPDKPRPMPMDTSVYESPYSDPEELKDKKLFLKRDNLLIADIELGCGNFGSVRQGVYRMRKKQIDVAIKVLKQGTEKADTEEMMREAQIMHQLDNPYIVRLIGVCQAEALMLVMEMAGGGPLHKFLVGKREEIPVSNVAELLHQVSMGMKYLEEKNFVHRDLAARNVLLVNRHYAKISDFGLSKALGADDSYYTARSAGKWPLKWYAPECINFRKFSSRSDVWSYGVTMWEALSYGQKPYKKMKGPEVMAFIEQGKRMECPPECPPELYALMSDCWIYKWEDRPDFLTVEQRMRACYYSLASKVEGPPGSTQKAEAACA
TGFBR1, sequence (P36897 34-503): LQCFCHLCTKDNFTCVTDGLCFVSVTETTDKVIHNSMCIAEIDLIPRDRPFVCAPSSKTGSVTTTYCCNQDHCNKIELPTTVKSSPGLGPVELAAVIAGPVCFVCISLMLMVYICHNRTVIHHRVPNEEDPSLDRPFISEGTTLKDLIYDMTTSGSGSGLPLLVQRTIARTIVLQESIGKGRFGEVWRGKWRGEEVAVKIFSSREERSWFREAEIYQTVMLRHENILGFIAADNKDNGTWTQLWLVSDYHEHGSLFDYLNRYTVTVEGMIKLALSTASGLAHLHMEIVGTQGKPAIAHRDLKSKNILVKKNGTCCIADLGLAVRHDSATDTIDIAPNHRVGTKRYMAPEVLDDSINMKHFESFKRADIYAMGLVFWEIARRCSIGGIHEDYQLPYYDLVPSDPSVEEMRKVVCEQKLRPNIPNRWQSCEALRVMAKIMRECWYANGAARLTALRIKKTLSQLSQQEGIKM
PKCz, sequence (Q05513 whole entry): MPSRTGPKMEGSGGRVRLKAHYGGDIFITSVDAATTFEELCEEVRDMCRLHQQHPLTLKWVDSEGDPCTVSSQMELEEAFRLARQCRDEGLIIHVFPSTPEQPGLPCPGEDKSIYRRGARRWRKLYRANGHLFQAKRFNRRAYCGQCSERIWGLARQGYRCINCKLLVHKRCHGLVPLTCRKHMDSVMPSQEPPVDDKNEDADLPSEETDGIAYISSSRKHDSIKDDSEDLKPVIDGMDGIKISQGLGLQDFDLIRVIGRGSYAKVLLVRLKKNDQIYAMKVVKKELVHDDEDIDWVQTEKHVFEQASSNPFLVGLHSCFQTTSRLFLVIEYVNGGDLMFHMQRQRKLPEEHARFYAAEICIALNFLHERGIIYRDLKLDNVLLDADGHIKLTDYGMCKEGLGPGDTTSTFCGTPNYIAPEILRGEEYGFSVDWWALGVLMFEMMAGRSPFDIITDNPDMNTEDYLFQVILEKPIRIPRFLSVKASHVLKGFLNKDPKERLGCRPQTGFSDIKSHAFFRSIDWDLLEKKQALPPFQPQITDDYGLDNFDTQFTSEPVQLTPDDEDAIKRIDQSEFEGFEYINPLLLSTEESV
TBK1, sequence (Q9UHD2 whole entry): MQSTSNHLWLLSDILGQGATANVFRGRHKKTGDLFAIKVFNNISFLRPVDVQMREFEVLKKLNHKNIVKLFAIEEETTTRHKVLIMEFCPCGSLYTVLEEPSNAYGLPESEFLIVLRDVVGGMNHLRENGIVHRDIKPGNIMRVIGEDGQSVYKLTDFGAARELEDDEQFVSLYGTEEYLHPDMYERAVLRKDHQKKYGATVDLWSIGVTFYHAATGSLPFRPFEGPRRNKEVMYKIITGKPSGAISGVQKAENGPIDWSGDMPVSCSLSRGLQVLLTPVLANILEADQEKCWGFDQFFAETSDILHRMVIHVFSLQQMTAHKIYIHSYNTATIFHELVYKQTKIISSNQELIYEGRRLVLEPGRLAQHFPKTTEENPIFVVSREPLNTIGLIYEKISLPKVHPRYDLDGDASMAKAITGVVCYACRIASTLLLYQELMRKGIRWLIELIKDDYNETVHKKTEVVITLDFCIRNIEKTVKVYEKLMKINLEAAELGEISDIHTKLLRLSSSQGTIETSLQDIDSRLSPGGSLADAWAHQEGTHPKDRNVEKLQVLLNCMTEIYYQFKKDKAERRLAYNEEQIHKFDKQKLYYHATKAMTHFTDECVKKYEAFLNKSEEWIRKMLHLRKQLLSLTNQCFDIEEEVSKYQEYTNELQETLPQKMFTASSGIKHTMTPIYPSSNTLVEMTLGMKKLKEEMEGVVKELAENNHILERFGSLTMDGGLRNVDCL
MAPKAP-K2, sequence (P49137 whole entry): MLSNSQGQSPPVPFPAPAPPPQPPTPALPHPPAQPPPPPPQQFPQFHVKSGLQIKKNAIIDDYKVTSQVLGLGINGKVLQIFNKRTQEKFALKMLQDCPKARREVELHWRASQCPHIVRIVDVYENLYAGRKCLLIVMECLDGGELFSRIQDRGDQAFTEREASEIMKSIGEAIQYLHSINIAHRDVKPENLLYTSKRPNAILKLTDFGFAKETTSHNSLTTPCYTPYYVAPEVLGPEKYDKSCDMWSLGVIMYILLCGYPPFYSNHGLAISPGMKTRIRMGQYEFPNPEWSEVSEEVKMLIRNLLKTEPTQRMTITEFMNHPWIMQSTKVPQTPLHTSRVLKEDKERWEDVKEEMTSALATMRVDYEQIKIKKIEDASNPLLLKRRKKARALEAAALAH
PIM1, sequence (P11309 whole entry): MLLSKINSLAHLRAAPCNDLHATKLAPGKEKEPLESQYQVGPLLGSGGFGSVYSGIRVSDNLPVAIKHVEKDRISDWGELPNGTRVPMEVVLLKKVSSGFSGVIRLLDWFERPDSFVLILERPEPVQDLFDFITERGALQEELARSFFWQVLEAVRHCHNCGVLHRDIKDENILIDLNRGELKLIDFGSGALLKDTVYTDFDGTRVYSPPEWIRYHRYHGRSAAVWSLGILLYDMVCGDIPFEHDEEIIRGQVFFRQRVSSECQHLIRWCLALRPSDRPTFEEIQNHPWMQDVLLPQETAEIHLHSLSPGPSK

SMILES: FC(F)(F)c1ccccc1-c1nc(NCc2cccs2)c2ccccc2n1 [Compound 1, NIH-12848, reference compound]
- ΔTm at 63 µM [1]: -0.2 ± 0.4 °C

SMILES: CC(C)c1ccccc1-c1nc(NCc2ccccn2)c2c(ccn2C)n1 [Compound 40]
- remaining activity at 10 µM [2]: 115%
- remaining activity at 10 µM [3]: 83%
- remaining activity at 10 µM [4]: 115%
- remaining activity at 10 µM [5]: 112%
- remaining activity at 10 µM [6]: 110%
- remaining activity at 10 µM [7]: 98%
- remaining activity at 10 µM [8]: 115%
- remaining activity at 10 µM [9]: 115%
- remaining activity at 10 µM [10]: 120%
- remaining activity at 10 µM [11]: 125%
- remaining activity at 10 µM [12]: 119%
- remaining activity at 10 µM [13]: 97%
- remaining activity at 10 µM [14]: 100%
- remaining activity at 10 µM [15]: 98%
- remaining activity at 10 µM [16]: 94%
- remaining activity at 10 µM [17]: 111%
- remaining activity at 10 µM [18]: 91%
- remaining activity at 10 µM [19]: 95%
- remaining activity at 10 µM [20]: 107%
- remaining activity at 10 µM [21]: 138%
- remaining activity at 10 µM [22]: 110%
- remaining activity at 10 µM [23]: 102%
- remaining activity at 10 µM [24]: 111%
- remaining activity at 10 µM [25]: 93%
- remaining activity at 10 µM [26]: 103%
- remaining activity at 10 µM [27]: 94%
- remaining activity at 10 µM [28]: 100%
- remaining activity at 10 µM [29]: 87%
- remaining activity at 10 µM [30]: 97%
- remaining activity at 10 µM [31]: 95%
- remaining activity at 10 µM [32]: 123%
- remaining activity at 10 µM [33]: 105%
